Several values for one entry are separate records, joined by “and”; a condition that tells them apart may be missing. Identical values can stand only once.
Tests used:
rabbit platelet [1] = test: Collagen-induced aggregation in rabbit platelets (AG-II Aggregometer); format: cell-based; set-up: inhibition: dose or concentration left out as unconfirmed; conditions: Oryctolagus cuniculus, Platelet, read-out: Inhibition effect on collagen induced aggregation in rabbit platelet
Summary of the method: (§1)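 Rabbit citrated PRP, diluted with PPP to 300,000/mm^3 platelets for ADP or 450,000/mm^3 for collagen, was preincubated with compound 1 min at 37° C. before inducer was added. ADP at 7.5×10^-5 M or collagen supernatant in Auren Beronal buffer pH 7.35; transmittance change recorded, percent inhibition derived.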

rabbit platelet [2] = test: ADP-induced aggregation in rabbit platelets (AG-II Aggregometer); format: cell-based; set-up: inhibition: dose or concentration left out as unconfirmed; conditions: Oryctolagus cuniculus, Platelet, read-out: Inhibition effect on ADP-induced aggregation in rabbit platelet
Summary of the method: as §1

[3] = Acute toxicity test, oral administration to mice; format: in vivo; conditions: mouse, in vivo, Male mice
Procedure: The test compounds were administered orally to the mice and LD50 (mg/kg) of the compounds was determined.

[4] = Concentration in blood of male Wister rats; format: in vivo; conditions: 30 mg/kg water suspension, 30 mg/kg; for Concentration in blood: Rat
Procedure: (§2) A water suspension of test compound was administered at the dose of 30 mg/kg to the overnight fasted male Wister rats and male beagle dogs, and after a predetermined period of time, blood was collected from said animals to obtain plasma. 2 to 3 Milliliters of 0.1 N-NaOH and 2 ml of CHCl3 were added to 1 ml of the obtained plasma, and the mixture was shaken and extracted in a shaker for 2 hours, and after centrifugal separation, the organic layer was washed with 2 ml of 0.1 N-HCl. This organic layer was then subjected to a freezing and thawing treatment, and after evaporating chloroform under nitrogen stream, the residue was redissolved in 100 μl of chloroform and spotted on a thin layer plate of "Silica Gel 60 F254 " manufactured by Merck & Co., Inc. This was developed in a chloroform: butanol mixed solvent (5:1) and determined by measuring the spots with same Rf value as the test compound according to the absorbance method by using Shimazu CS-910 Thin Layer Chromato-scanner,and therefrom the concentration (μg/ml) of test compound A in blood was determined.

[5] = Concentration in blood of male beagle dogs; format: in vivo; conditions: 30 mg/kg water suspension, 30 mg/kg; for Concentration in blood: Beagle dog
Procedure: as §2

SMILES: CC(=O)OC1CCC(N(C)C(=O)CCCOc2ccc3[nH]c(=O)ccc3c2)CC1 (stereo not drawn) [compound 3, 6-{3-[N-Methyl-N-(4-acetyloxycyclohexyl)aminocarbonyl]propoxy}carbostyril]
- inhibition at 100 µM (stock) (rabbit platelet [1]; 10^-4 mole): 90.8%
- inhibition at 10 µM (stock) (rabbit platelet [1]; 10^-5 mole): 84.8%
- inhibition at 1 µM (stock) (rabbit platelet [1]; 10^-6 mole): 61.9%
- inhibition at 100 µM (stock) (rabbit platelet [2]; 10^-4 mole): 91.5%
- inhibition at 10 µM (stock) (rabbit platelet [2]; 10^-5 mole): 75%
- inhibition at 1 µM (stock) (rabbit platelet [2]; 10^-6 mole): 20.8%
- LD50 [3]: > 1000 mg/kg

SMILES: CN(C(=O)CCCOc1ccc2[nH]c(=O)ccc2c1)C1CCCCC1 [compound 16, 6-[3-(N-Methyl-N-cyclohexylaminocarbonyl)propoxy]carbostyril]
- inhibition (rabbit platelet [1]): 90.5%
- inhibition (rabbit platelet [2]): 91.7%
- Concentration in blood ([4]; 1 hr., 60 min): 1060 ng/mL and 880 ng/mL
- Concentration in blood ([4]; 4 hr., 240 min): 710 ng/mL and 830 ng/mL
- Concentration in blood ([4]; 12 hr., 720 min): 730 ng/mL and 780 ng/mL
- concentration at 1 h ([4]; rat, plasma, 1 hr.): 900 ng/mL
- concentration at 4 h ([4]; rat, plasma, 4 hr.): 1100 ng/mL
- concentration at 12 h ([4]; rat, plasma, 12 hr.): 640 ng/mL
- Concentration in blood ([5]; 1 hr., 60 min): 130 ng/mL
- Concentration in blood ([5]; 2 hr., 120 min): 310 ng/mL
- Concentration in blood ([5]; 6 hr., 360 min): 210 ng/mL
- Concentration in blood ([5]; 12 hr., 720 min): 70 ng/mL
- concentration at 1 h ([5]; dog, plasma, 1 hr.): 230 ng/mL
- concentration at 2 h ([5]; dog, plasma, 2 hr.): 280 ng/mL
- concentration at 6 h ([5]; dog, plasma, 6 hr.): 110 ng/mL
- concentration at 12 h ([5]; dog, plasma, 12 hr.): 40 ng/mL
- LD50 [3]: > 1000 mg/kg
